Test results as given in patent publication US20140206017A1, “LYSYL OXIDASE-LIKE 2 ASSAY AND METHODS OF USE THEREOF” (priority 2011, published 2014).
Values joined by “and” are separate entries in the source; they are usually repeats but may differ in a detail not shown here. Identical values can stand only once. Counter-ions that a name gives are not always drawn.

Tests used:
[1] = system: liver fibrosis in subjects with chronic hepatitis B (CHB); assay: Liver biopsy (Ishak fibrosis score) in CHB subjects before and after 240 weeks of TDF; type: in vivo, human; settings: for Chance of regression of cirrhosis at week 240: cirrhotic subjects
Method: Serum LOXL2 levels were assessed in subjects with chronic hepatitis B (CHB) and liver fibrosis, both before treatment and after 240 weeks of treatment with 300 mg tenofovir disoproxil fumarate (TDF). Liver biopsies were taken from 348 human subjects with CHB, prior to treatment and after 240 weeks of treatment with TDF. The biopsies were scored by pathologists using the Ishak scale for assessment of fibrosis. […] Of the 96 subjects who began the study with biopsy-proven cirrhosis, 74% had regression of cirrhosis after 240 weeks of treatment. […] At week 240 following treatment, 42 of these 81 subjects had cirrhosis regression, 16 had persistent cirrhosis, 2 had progressed to cirrhosis over the course of treatment, 18 were non-cirrhotic subjects with no change in fibrosis, and 3 were non-cirrhotic subjects with at least a 2-point reduction in fibrosis as measured by Ishak.

serum LOXL2 = assay: Serum LOXL2 by ELISA at baseline and week 240 of TDF treatment in CHB subjects; type: in vivo, human; settings: for Median serum LOXL2: LOQ = 440 pg/mL
From the text: At week 240 following treatment, 42 of these 81 subjects had cirrhosis regression, 16 had persistent cirrhosis, 2 had progressed to cirrhosis over the course of treatment, 18 were non-cirrhotic subjects with no change in fibrosis, and 3 were non-cirrhotic subjects with at least a 2-point reduction in fibrosis as measured by Ishak.

cancer = assay: Cancer patients treated with anti-LOXL2 antibody AB0024: time to progression; type: in vivo, human; settings: individual cancer patients
From the text: Blood samples were obtained at Day 1 on which anti-LOXL2 treatment began (sample taken before anti-LOXL2 treatment); and on days 29 and 57 following the beginning of anti-LOXL2 treatment.

LOXL2 = target: T1, LOXL2 (Homo sapiens, UniProt Q9Y4K0); assay: LOXL2 immunoassay of plasma/serum from patients receiving AB0024; type: in vivo; settings: samples day 1 (pre-dose), 29 and 57
T1 construct: from tissue; host or cells: plasma and serum of human cancer patients
T1 sequence (Q9Y4K0 26-774): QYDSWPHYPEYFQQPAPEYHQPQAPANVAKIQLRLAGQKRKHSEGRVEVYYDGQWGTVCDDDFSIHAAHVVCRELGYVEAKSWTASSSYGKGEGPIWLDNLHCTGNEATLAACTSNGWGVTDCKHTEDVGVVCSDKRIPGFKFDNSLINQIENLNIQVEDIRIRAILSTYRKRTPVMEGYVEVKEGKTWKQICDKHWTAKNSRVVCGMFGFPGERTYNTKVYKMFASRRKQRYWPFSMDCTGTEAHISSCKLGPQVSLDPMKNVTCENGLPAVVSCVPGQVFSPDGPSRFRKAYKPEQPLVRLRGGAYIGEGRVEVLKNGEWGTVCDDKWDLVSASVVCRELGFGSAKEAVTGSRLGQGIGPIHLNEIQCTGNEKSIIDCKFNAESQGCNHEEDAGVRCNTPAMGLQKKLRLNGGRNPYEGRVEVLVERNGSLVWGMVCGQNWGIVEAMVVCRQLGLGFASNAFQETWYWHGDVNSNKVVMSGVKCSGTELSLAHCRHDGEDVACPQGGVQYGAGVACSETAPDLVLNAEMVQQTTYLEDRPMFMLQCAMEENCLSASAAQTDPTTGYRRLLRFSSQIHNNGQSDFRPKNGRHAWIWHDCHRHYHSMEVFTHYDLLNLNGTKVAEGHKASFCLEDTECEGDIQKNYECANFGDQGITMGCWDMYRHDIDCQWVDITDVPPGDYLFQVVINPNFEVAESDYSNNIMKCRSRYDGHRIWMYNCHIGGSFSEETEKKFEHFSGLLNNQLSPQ
Method: Standard single-spot uncoated electrode plates from MesoScale Discovery (MSD) (cat #L15XA-3) were coated overnight at 4° C. with a 30 μl volume of a solution of 3 μg/ml rabbit anti-human-LOXL2 polyclonal antibody formulated in phosphate-buffered saline (PBS). After coating, the wells of the plates were blocked by addition of a solution of 5% (w/v) Blocker A (MSD cat#R93AA-1) in PBS. After the blocking step, plates were washed 3 times in PBS containing 0.05% Tween-20 non-ionic detergent, using an automated plate washer. Human samples to be tested (serum or plasma) were prepared separately by diluting them 1:4 in PBS (1 part serum, 3 parts PBS). Samples were then added to each well of the plate. Samples were incubated with rotary shaking (300-600 rpm) for 2-3 hours at room temperature. After sample binding, the plates were again washed 3 times in PBS containing 0.05% Tween-20 detergent, using an automated plate washer. […]
1× Read Buffer T with Surfactants (MSD cat#R92TC-2) was added to each well, followed by immediate measurement of the plate on the MSD SectorImager 2400 instrument.
Test human samples were given a relative quantitative value of LOXL2 by comparison to the calibrator curve on the same assay plate, comprised of purified recombinant human LOXL2 protein (R&D Systems) added in known concentrations to human serum or plasma pooled from normal healthy donors. […]

[2] = Wk 240, Persistent Cirrhosis (n = 16), baseline 31%
[3] = baseline to Wk 240, Non-Cirrhotic No Δ (n = 18)
[4] = baseline to Wk 240, Persistent Cirrhosis (n = 16)
[5] = baseline to Wk 240, Reversed Cirrhosis (n = 42)

CC(C)OC(=O)OCOP(=O)(CO[C@H](C)Cn1cnc2c(N)ncnc21)OCOC(=O)OC(C)C [TDF, tenofovir disoproxil fumarate] was tested, and the “Subjects with improvement in, or no progression of, liver fibrosis” value ([1]; 348 CHB subjects, 300 mg, 240 weeks) was 96.3%, the “Chance of regression of cirrhosis at week 240” value (“Chance” below) ([1]; baseline serum LOXL2 above 3000 pg/mL) was 29% and the “Chance” value ([1]; baseline serum LOXL2 between 1500 and 3000 pg/mL) was 70%. The “Chance” value ([1]; baseline serum LOXL2 less than 1500 pg/mL) was 88%, the “Patients with regression or improvement of Ishak fibrosis score” value ([1]; of the 60 patients with baseline cirrhosis, 240 weeks) was 72% and the “Subjects with regression of cirrhosis” value ([1]; of the 96 subjects with biopsy-proven cirrhosis at start, after 240 weeks) was 74%. The “Mean serum LOXL2” value (serum LOXL2; Week 240, Ishak Stage 0-3, N 56 (baseline 510.2, N 18)) was 746.8 pg/mL, the “Mean serum LOXL2” value (serum LOXL2; Week 240, Ishak Stage 4-6, N 25 (baseline 3298.2, N 63)) was 753.5 pg/mL and the “Mean serum LOXL2” value (serum LOXL2; Week 240, all subjects N 81 (baseline 2678.6)) was 748.9 pg/mL. The “Subjects with serum LOXL2 >3000 pg/mL” value (serum LOXL2; Wk 240, Non-Cirrhotic No Δ (n = 18), baseline 6%) was 0 (0%), the “Subjects with serum LOXL2 <LoD” value (serum LOXL2; Wk 240, Non-Cirrhotic No Δ (n = 18), baseline 22%) was 8 (44%) and the “Subjects with serum LOXL2 <LoQ” value (serum LOXL2; Wk 240, Non-Cirrhotic No Δ (n = 18), baseline 56%) was 14 (78%). The “Subjects with serum LOXL2 <1000 pg/mL” value (serum LOXL2; Wk 240, Non-Cirrhotic No Δ (n = 18), baseline 72%) was 15 (83%), the “Mean serum LOXL2” value (serum LOXL2; Wk 240, Non-Cirrhotic No Δ (n = 18), baseline 798.4) was 436.8 pg/mL and the “Median serum LOXL2” value (serum LOXL2; Wk 240, Non-Cirrhotic No Δ (n = 18), baseline <LOQ) was “<LOQ”. For the same molecule, the “Subjects with serum LOXL2 <LoD” value (serum LOXL2; Wk 240, Persistent Cirrhosis (n = 16), baseline 6%) was 2 (13%), the “Subjects with serum LOXL2 <LoQ” value (serum LOXL2; Wk 240, Persistent Cirrhosis (n = 16), baseline 13%) was 8 (50%) and the “Subjects with serum LOXL2 <1000 pg/mL” value (serum LOXL2; [2]) was 14 (88%). The “Subjects with serum LOXL2 >3000 pg/mL” value (serum LOXL2; [2]) was 0 (0%), the “Median serum LOXL2” value (serum LOXL2; Wk 240, Persistent Cirrhosis (n = 16), baseline 1863) was “LOQ” and the “Mean serum LOXL2” value (serum LOXL2; Wk 240, Persistent Cirrhosis (n = 16), baseline 9124.1) was 603.8 pg/mL. The “Subjects with serum LOXL2 <LoD” value (serum LOXL2; Wk 240, Reversed Cirrhosis (n = 42), baseline 2%) was 13 (31%), the “Subjects with serum LOXL2 >3000 pg/mL” value (serum LOXL2; Wk 240, Reversed Cirrhosis (n = 42), baseline 5%) was 3 (7%) and the “Subjects with serum LOXL2 <LoQ” value (serum LOXL2; Wk 240, Reversed Cirrhosis (n = 42), baseline 10%) was 29 (69%). For the same molecule, the “Subjects with serum LOXL2 <1000 pg/mL” value (serum LOXL2; Wk 240, Reversed Cirrhosis (n = 42), baseline 48%) was 35 (83%), the “Median serum LOXL2” value (serum LOXL2; Wk 240, Reversed Cirrhosis (n = 42), baseline 1073) was “<LOQ” and the “Mean serum LOXL2” value (serum LOXL2; Wk 240, Reversed Cirrhosis (n = 42), baseline 1355.0) was 922.6 pg/mL. For the same molecule, the “Subjects with Decrease in serum LOXL2” value (serum LOXL2; [3]) was 9 (50%), the “Subjects with Increase in serum LOXL2” value (serum LOXL2; [3]) was 2 (11%) and the “Subjects with Decrease in serum LOXL2” value (serum LOXL2; [4]) was 14 (88%). The “Subjects with Increase in serum LOXL2” value (serum LOXL2; [4]) was 0 (0%), the “Subjects with Decrease in serum LOXL2” value (serum LOXL2; [5]) was 37 (88%) and the “Subjects with Increase in serum LOXL2” value (serum LOXL2; [5]) was 5 (12%). The “Cirrhotic subjects with a reduction in LOXL2 levels” value (serum LOXL2; baseline to week 240) was 88%, the “Subjects with a reduction in serum LOXL2 levels” value (serum LOXL2; of the 81 subjects, baseline to week 240) was 79% and the “Subjects with no change in LOXL2 levels” value (serum LOXL2; of the 81 subjects, each with baseline below limit of quantitation) was 11%.

B1: AB0024: humanized anti-LOXL2 monoclonal antibody; inhibits LOXL2 enzymatic activity, binds epitope within SRCR3-4; VH SEQ ID NO:8, VL SEQ ID NO:9 (antibody, V domains shown)
VH: QVQLVQSGAEVKKPGASVKVSCKASGYAFTYYLIEWVRQAPGQGLEWIGVINPGSGGTNYNEKFKGRATITADKSTSTAYMELSSLRSEDTAVYFCARNWMNFDYWGQGTTVTVSS
VL: DIVMTQTPLSLSVTPGQPASISCRSSKSLLHSNGNTYLYWFLQKPGQSPQFLIYRMSNLASGVPDRFSGSGSGTDFTLKISRVEAEDVGVYYCMQHLEYPYTFGGGTKVEIK
With B1 the Time to progression (cancer; dose level 1 mpk) was 44 days and Stable and 57 days, the Time to progression (cancer; dose level 3 mpk) was 38 days and 56 days and 42 days and the Time to progression (cancer; dose level 10 mpk) was 57 days and 30 days and 51 days. The “Effect of antibody administration on LOXL2 signal in plasma/serum” value (LOXL2) was “did not clear or mask the LOXL2 signal”.
